We go through 24 molecules from ChEMBL document CHEMBL4411258, “Novel natural compounds from endophytic fungi with anticancer activity” (Eur J Med Chem, 2018).

A word on the IC50: it is the concentration that gives 50% inhibition.

For experiment [1], the system named is MCF7. As to the kind of experiment: Cytotoxicity against human MCF7 cells after 48 hrs by sulforhodamine B assay. The format is functional, cell-based. The conditions noted are these: Homo sapiens, MCF7, 48 h.
For experiment [2], the system named is HepG2. Nature of the experiment: Cytotoxicity against human HepG2 cells after 48 hrs by sulforhodamine B assay. Type of experiment: functional, cell-based. The conditions noted are these: Homo sapiens, HepG2, 48 h.
The subject of a further experiment is L02. Nature of the experiment: Cytotoxicity against human L02 cells by MTS assay. The format is cell-based. For orientation: Tetrazolium dyes change colour on reduction, which living cells bring about.
Experiment [3] relates to MCF7. As to the kind of experiment: Cytotoxicity against human MCF7 cells after 48 hrs by MTT assay. The format is functional, cell-based. Conditions: Homo sapiens, MCF7, 48 h; read-out: IC50.
The test system of the next experiment is PC-3. Nature of the experiment: Cytotoxicity against human PC3 cells after 48 hrs by MTT assay. The format is functional, cell-based. Conditions: PC-3, 48 h.
In the next experiment the test system is SF-268. As to the kind of experiment: Cytotoxicity against human SF268 cells after 48 hrs by sulforhodamine B assay. Type of experiment: functional, cell-based. The conditions noted are these: Homo sapiens, SF-268, 48 h. (In general: In SRB staining, fixed cells bind dye roughly in proportion to their protein.)
The test system of the next experiment is NCI-H460. Nature of the experiment: Cytotoxicity against human NCI-H460 cells after 48 hrs by sulforhodamine B assay. The format is functional, cell-based. The conditions noted are these: Homo sapiens, NCI-H460, 48 h.
The subject of experiment [4] is HepG2. As to the kind of experiment: Cytotoxicity against human HepG2 cells by MTT assay. Type of experiment: functional, cell-based.
Experiment [5] deals with SH-SY5Y. Nature of the experiment: Cytotoxicity against human SH-SY5Y cells by MTT assay. The format is functional, cell-based.
The test system of another experiment is L5178Y. Nature of the experiment: Cytotoxicity against mouse L5178Y cells by MTT assay. Type of experiment: functional, cell-based.
Another experiment deals with NB-4. Nature of the experiment: Cytotoxicity against human NB4 cells after 48 hrs by MTT assay. The format is functional, cell-based. Conditions: NB-4, 48 h.
Experiment [6] concerns A549. Nature of the experiment: Cytotoxicity against human A549 cells after 48 hrs by MTT assay. The format is functional, cell-based. Conditions: Homo sapiens, A549, 48 h; read-out: IC50.
Experiment [7] concerns SH-SY5Y. Nature of the experiment: Cytotoxicity against human SH-SY5Y cells after 48 hrs by MTT assay. The format is functional, cell-based.
Experiment [8] can be described thus: Cytotoxicity against human KATO III cells after 72 hrs by MTT assay. The format is functional, cell-based.
For experiment [9], the system named is A549. As to the kind of experiment: Cytotoxicity against human A549 cells by MTT assay. Type of experiment: functional, cell-based.

For `Cc1cc(O)c(C(=O)c2c(C(=O)O)cc(O)c(O)c2O)c(O)c1`, the half-inhibitory concentration (IC50) in the experiment on MCF7 [1] was 70 µM; in the experiment on HepG2 [2] it was 60 µM.

Consider `COc1cc(C)c2c(c1)oc(=O)c1c(O)cc(O[C@@H]3O[C@H](CO)[C@H](O)[C@H](O)[C@H]3O)cc12`, for which half-maximal inhibition in the experiment on L02 (IC50) required 7.2 µg/mL.

As to `Cc1cc(O)c2c(c1)C(=O)c1c(c(O)cc(O)c1-c1c(O)cc(O)c3c1C(=O)c1cc(CC(C)O)cc(O)c1C3=O)C2=O` (stereo not drawn), the 50% inhibitory concentration (IC50) with MCF7 [3] is 20.8 µg/mL.

For `COc1ccc2c(c1)N(C(=O)C=C(C)C)C1C2[C@H](O)[C@@]2(O)C(=O)N3CCC[C@H]3C(=O)N2[C@H]1CC(C)(C)O` (stereo partly drawn), the half-maximal inhibitory concentration (IC50) with PC-3 worked out at 30.6 µM.

On to `CCC/C=C/[C@H]1C=CC(=O)[C@H](O)[C@H]1C(=O)C(C)O` (stereo partly drawn), for which the concentration for half-maximal inhibition (IC50) in the experiment on SF-268 is 40.5 µM; in the experiment with MCF7 [1] it was 15.7 µM; in the experiment with NCI-H460, 36.4 µM; in the experiment on HepG2 [2] it was 46.8 µM.

Take `CC[C@H](C)C(=O)[C@@H](C)c1c(O)c2c(c3c1SCC(=O)N3)[C@@H](O)[C@@H]1[C@@]3(C)CC[C@H](C(C)(C)O)O[C@@H]3CC[C@@]1(C)O2`: the half-maximal inhibitory concentration (IC50) with SF-268, with MCF7 [1], with NCI-H460 and in the experiment on HepG2 [2] was 6.4 to 42.6 µM in each case.

`COC(=O)[C@]1(Cc2ccc(OC)c(CC=C(C)C)c2)OC(=O)C(O)=C1c1ccccc1`: the IC50 in the experiment on HepG2 [4], with SH-SY5Y [5] and in the experiment on L02 was less than 10 µM each time.

As to `CCCCC[C@@H]1CC[C@H](C)CCCCC(=O)N[C@@H](Cc2ccc(OCC=C(C)C)cc2)C(=O)O1`, the IC50 in the experiment on HepG2 [4] is 36.6 µM.

Take `COc1cc(OC)c2c(c1CC=C(C)C)C[C@@H](C)OC2=O`: the half-inhibitory concentration (IC50) with HepG2 [4] was 9.4 µM; in the experiment on SH-SY5Y [5] it was 8.5 µM.

Regarding `CC[C@H](C)c1[nH]c2c(c1C)C(=O)C1=C(C2=O)[C@@H](O)[C@@H]2[C@@]3(C)CC[C@H](C(C)(C)O)O[C@@H]3CC[C@@]2(C)O1`, the concentration for half-maximal inhibition (IC50) in the experiment with SF-268, in the experiment on MCF7 [1], in the experiment with NCI-H460 and with HepG2 [2] was 6.4 to 42.6 µM throughout.

Turning to `CC[C@@H](C)C[C@H](/C=C(\C)[C@H](O)[C@H](C)/C=C(\C)[C@H](O)[C@H](C)/C=C/[C@H](O)[C@H](C)/C=C(\C)C=O)CO`, the IC50 in the experiment with L5178Y stood at 4.1 µM.

Take `CN1C(=O)[C@]23O[C@]4(O)[C@@H](O)C(=O)N5C(C)(C)[C@H](Cc6cccc1c62)[C@H]3[C@@]54O`: the concentration for half-maximal inhibition (IC50) in the experiment on MCF7 [3], with NB-4, in the experiment on A549 [6], in the experiment on SH-SY5Y [7] and with PC-3 was 1.2 to 4.2 µM each time.

The molecule `COc1cc(O)c2c(=O)cc(C)oc2c1[C@@H](C[C@@H](OC)C(=O)O)OC` had an IC50 in experiment [8] of 16.8 µM.

On to `CC[C@H](C)C(=O)[C@@H](C)C1=CC(=O)C2=C(O[C@]3(C)CC[C@H]4O[C@@H](C(C)(C)O)CC[C@]4(C)C3=C2)C1=O`, for which the half-maximal inhibitory concentration (IC50) in the experiment on SF-268, in the experiment on MCF7 [1], in the experiment with NCI-H460 and with HepG2 [2] was 6.4 to 42.6 µM throughout.

Regarding `COC(=O)[C@]1(Cc2ccc(OC)c(CC=C(C)C)c2O)OC(=O)C(O)=C1c1ccc(O)cc1`, the IC50 in the experiment on HepG2 [4] was 4.8 µM; with L02 it was 3.9 µM.

`COC(=O)[C@@H](C[C@@H](OC)c1c(OC)cc(O)c2c(=O)cc(C)oc12)OC` showed an IC50 in [8] of 21.4 µM.

Consider `CS[C@@]1(CO)C(=O)N(C)[C@@](Cc2cn([C@@]34C[C@@]5(SC)C(=O)N(C)[C@](CO)(SC)C(=O)N5[C@]3(C)Nc3ccccc34)c3ccccc23)(SC)C(=O)N1C`, for which the IC50 in the experiment with MCF7 [3] is 8.3 µg/mL.

Turning to `COc1cc(O)c2c(c1-c1c(OC)cc(O)c3c1C(=O)C1=C(C3=O)[C@H](O)[C@@H](OC(C)=O)[C@@](C)(O)[C@@H]1O)C(=O)C1=C(C2=O)[C@H](O)[C@@H](O)[C@@](C)(O)[C@@H]1O`, the midpoint of inhibition with L5178Y, the IC50, lay at 10.4 µM.

For the molecule `COC(=O)[C@]1(Cc2ccc(O)c(CC=C(C)C)c2)OC(=O)C(O)=C1c1ccc(OC)cc1`, the IC50 in the experiment with HepG2 [4], with SH-SY5Y [5] and in the experiment on L02 was less than 10 µM each time.

With `COC(=O)[C@]1(Cc2ccc(O)c(CC=C(C)C)c2)OC(=O)C(O)=C1c1ccccc1`, the half-inhibitory concentration (IC50) in the experiment with HepG2 [4], in the experiment on SH-SY5Y [5] and in the experiment with L02 was less than 10 µM throughout.

In the experiment with SH-SY5Y [5], `COc1ccc(C(CO)C(O)CO)c2oc3c(O)c(O)cc(O)c3c(=O)c12` (stereo not drawn) showed an IC50 of 4.2 µM.

In the case of `COc1ccc(CCCO)c2cc(CC(C)=O)oc(=O)c12`, the IC50 in the experiment with MCF7 [3], in the experiment with NB-4, in the experiment with A549 [6], in the experiment with SH-SY5Y [7] and with PC-3 was 2.8 to 8.8 µM in each case.

Consider `COc1c(O)cc2c(c1CC=C(C)C)C[C@@H](C)OC2=O`, for which 8.8 µM corresponded to half-maximal inhibition in the experiment with SH-SY5Y [5] (IC50).

`COc1cc(O)c2c(=O)c3c(O)ccc(C(CO)C(O)CO)c3oc2c1O` (stereo not drawn): in the experiment with A549 [9], the half-maximal inhibitory concentration (IC50) is 3.6 µM.
